In publication PMC2892103 (Journal of molecular biology, 2010):

Biological target: T1, E. coli TrmD (Escherichia coli, UniProt P0A873)
T1 sequence (P0A873 1-255): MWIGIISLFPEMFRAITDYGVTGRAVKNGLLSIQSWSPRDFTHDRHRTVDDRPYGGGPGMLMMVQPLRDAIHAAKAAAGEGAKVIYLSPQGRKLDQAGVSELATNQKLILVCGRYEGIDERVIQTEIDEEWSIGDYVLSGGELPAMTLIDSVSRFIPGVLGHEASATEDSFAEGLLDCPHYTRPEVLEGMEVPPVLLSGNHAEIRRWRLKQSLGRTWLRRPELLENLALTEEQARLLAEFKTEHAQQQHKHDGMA
Experiment: intrinsic tryptophan fluorescence quenching, quadratic fit
Format: binding

Row | Compound | Kd
1 | Nc1ncnc2c1ncn2[C@@H]1O[C@H](CSCC[C@H](N)C(=O)O)[C@@H](O)[C@H]1O [AdoHcy] | 330 ± 40 nM
2 | C[S+](CC[C@H](N)C(=O)O)C[C@H]1O[C@@H](n2cnc3c(N)ncnc32)[C@H](O)[C@@H]1O (some centres unmarked) [AdoMet] | 1100 ± 200 nM
